From ChEMBL document CHEMBL1201862, “PubChem BioAssay data set” (2004)
Calls of active or inactive are those of the source.

What was measured:
[1] = target: T1, Protein Tat (Human immunodeficiency virus type 1 group M subtype B (isolate HXB2)(HIV-1), UniProt P04608); format: functional;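 also: tat binding to TAR RNA read out by fluorescence polarization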
T1 sequence (P04608 whole entry): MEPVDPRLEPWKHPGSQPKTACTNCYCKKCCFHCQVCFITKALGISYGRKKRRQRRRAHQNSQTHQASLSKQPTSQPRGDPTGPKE

[2] = target: T2, Sentrin-specific protease 8 (Homo sapiens, UniProt Q96LD8); format: functional;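 also: luminescence read-out of SENP8 inhibition, dose-response confirmation following an ultra-high-throughput screen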
T2 sequence (Q96LD8 whole entry): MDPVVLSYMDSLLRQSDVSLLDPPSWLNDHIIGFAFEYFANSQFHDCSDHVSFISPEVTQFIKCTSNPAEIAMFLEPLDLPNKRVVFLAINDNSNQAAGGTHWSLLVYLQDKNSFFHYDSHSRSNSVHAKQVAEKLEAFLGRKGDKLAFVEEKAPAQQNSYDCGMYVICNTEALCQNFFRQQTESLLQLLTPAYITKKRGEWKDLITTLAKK

[3] = target: T3, Sentrin-specific protease 7 (Homo sapiens, UniProt Q9BQF6); format: functional;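 also: Luminescence-based dose-response confirmation of ultra-high-throughput screening hits, measuring inhibition of SENP7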
T3 sequence (Q9BQF6 whole entry): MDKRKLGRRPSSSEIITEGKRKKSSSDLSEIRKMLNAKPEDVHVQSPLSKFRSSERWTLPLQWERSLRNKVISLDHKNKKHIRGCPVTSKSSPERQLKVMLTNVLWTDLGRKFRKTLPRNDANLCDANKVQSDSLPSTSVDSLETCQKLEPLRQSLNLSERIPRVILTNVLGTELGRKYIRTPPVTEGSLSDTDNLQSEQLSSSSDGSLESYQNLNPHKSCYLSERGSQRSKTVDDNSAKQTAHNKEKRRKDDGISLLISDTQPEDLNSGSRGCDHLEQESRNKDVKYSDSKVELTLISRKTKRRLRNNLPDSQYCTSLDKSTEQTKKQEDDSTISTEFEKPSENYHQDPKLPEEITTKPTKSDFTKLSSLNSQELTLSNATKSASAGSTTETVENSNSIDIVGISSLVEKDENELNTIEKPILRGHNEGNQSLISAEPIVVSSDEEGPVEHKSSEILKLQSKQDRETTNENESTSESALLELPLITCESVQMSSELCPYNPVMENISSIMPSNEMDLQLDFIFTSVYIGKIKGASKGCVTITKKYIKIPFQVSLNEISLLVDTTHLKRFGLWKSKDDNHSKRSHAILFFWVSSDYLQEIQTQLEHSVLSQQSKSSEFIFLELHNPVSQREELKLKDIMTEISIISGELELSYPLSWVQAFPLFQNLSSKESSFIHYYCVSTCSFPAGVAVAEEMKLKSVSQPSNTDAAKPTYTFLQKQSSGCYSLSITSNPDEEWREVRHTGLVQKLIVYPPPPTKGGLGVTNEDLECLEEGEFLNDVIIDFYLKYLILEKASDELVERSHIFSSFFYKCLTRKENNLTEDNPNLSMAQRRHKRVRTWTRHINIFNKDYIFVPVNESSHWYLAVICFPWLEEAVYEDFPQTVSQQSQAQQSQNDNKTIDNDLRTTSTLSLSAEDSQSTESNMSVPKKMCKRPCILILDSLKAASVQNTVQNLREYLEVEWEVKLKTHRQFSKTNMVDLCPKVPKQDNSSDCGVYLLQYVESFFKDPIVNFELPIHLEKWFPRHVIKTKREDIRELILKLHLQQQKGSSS

[4] = target: T4, Caspase-3 (Homo sapiens, UniProt P42574); format: functional;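 also: Dose-response selectivity test against caspase-3 for candidate inhibitors of sentrin-specific proteases (SENPs)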
T4 sequence (P42574 whole entry): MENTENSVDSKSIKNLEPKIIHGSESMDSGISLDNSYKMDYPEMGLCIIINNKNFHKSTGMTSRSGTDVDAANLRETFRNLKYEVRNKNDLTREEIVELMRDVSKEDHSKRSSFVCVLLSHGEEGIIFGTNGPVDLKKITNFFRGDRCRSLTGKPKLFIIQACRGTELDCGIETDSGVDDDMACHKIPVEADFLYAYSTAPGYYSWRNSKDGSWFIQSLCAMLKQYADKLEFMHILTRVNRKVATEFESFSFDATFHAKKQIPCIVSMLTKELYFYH

[5] = target: T5, Sentrin-specific protease 6 (Homo sapiens, UniProt Q9GZR1); format: functional;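 also: Luminescence-based dose-response confirmatory assay of SENP6 inhibition, following up an ultra-high-throughput screen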
T5 sequence (Q9GZR1 whole entry): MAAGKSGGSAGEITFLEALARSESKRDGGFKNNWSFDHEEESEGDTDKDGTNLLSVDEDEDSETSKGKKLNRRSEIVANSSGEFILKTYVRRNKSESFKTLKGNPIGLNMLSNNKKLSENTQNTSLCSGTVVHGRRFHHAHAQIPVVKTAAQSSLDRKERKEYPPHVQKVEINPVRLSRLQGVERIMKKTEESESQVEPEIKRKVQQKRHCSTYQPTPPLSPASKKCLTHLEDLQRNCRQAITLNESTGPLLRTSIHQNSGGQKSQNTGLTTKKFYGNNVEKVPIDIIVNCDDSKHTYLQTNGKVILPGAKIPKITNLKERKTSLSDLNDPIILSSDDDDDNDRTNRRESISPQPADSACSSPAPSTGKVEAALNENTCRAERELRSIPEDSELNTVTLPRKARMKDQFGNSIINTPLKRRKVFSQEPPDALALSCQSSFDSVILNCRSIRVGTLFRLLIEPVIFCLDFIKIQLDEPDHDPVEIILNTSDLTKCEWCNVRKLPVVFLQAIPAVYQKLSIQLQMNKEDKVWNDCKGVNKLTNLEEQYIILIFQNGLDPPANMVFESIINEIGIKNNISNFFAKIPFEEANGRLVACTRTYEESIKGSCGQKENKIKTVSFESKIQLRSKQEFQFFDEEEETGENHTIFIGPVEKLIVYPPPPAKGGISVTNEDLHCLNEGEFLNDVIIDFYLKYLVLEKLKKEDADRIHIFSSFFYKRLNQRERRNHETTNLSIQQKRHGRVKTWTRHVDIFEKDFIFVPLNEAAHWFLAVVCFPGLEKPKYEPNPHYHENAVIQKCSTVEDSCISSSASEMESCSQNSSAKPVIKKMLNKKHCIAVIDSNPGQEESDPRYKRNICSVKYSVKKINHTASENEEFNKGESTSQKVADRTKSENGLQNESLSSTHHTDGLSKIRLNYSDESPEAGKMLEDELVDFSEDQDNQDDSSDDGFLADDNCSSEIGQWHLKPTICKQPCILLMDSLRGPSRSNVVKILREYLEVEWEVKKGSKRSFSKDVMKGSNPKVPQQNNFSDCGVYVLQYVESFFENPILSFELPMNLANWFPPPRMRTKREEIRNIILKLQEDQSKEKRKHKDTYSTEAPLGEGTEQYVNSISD

[6] = CRF-BP/CRF-R2 complex antagonists, dose response, cell-based, uHTS hits, 384-well (AID 651639); format: functional, Homo sapiens; settings: read-out: IC50_Mean
[7] = target: T6, Corticotropin-releasing factor receptor 2/Corticotropin-releasing factor-binding protein (Homo sapiens, UniProt P24387+Q13324); assay: Dose Response confirmation of uHTS hits for small molecule antagonists of the CRF-binding protein and CRF-R2 receptor complex.; format: functional; settings: read-out: IC50_Mean
T6 sequence (Q13324 whole entry): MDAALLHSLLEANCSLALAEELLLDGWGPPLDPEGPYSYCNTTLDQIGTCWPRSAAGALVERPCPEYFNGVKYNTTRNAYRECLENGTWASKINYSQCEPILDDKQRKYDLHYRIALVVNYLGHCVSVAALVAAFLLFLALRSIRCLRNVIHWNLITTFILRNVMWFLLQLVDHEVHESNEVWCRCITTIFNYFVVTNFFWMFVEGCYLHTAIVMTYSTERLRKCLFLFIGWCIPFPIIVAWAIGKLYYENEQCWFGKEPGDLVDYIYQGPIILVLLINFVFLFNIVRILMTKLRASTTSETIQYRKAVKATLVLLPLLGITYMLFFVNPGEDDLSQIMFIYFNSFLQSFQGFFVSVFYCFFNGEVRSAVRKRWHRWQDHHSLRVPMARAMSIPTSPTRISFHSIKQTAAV
T6 sequence (P24387 whole entry): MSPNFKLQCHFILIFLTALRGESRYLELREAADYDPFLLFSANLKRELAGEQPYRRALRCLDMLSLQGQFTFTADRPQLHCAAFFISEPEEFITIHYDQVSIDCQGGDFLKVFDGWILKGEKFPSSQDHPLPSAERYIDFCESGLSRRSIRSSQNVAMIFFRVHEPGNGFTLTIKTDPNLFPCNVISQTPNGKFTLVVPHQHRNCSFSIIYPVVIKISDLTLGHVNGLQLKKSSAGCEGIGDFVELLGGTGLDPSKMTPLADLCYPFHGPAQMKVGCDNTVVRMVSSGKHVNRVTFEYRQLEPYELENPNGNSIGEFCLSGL

[8] = target: T6, Corticotropin-releasing factor receptor 2/Corticotropin-releasing factor-binding protein; assay: activators of CRF receptor 2 with binding protein – uHTS hits, confirmation (AID 602473); format: functional; settings: read-out: EC50_Mean
[9] = cells; format: functional
[10] = off-target signal loss in HeLa-CEM21 co-culture – HeLa F-luc CTL cells, cherry-picked, counter-screen for HIV-1 Env fusion inhibitor project, dose response (AID 652040); format: functional, cell-based;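 also: potency for signal decrease marking cytotoxic or nonspecific inhibition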
[11] = HEp-2 cell cytotoxicity, dose response, cytotoxicity control for RSV inhibitor project, HTS (AID 2410); format: functional; settings: human respiratory syncytial virus
[12] = inhibitors of HIV Env-driven cell fusion, dose response, cherry-pick (AID 652057); format: functional, cell-based
[13] = inhibitors of intracellular T. cruzi replication, confirmation, NIH3T3 host cells, beta-gal luminescence (AID 2044); format: functional, cell-based;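 also: intracellular parasites grown in NIH/3T3 mouse fibroblasts as host cells; luminescent beta-galactosidase reporter signal from transgenic T. cruzi replicating inside host cells; inhibitors lower the luminescence signal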
[14] = cytotoxicity toward NIH3T3 fibroblasts, dose response, counter-screen, cell-based, ATP luminescence, mouse fibroblasts (AID 2010); format: functional;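 also: cells exposed to compound for about 90 hours before reading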
[15] = target: Cytochrome P450 3A4 (Homo sapiens, UniProt P08684);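 also: CYP3A4 tested as one member of a cytochrome P450 panel screen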
Sequence of Cytochrome P450 3A4 (P08684 whole entry, the tested form may be a part): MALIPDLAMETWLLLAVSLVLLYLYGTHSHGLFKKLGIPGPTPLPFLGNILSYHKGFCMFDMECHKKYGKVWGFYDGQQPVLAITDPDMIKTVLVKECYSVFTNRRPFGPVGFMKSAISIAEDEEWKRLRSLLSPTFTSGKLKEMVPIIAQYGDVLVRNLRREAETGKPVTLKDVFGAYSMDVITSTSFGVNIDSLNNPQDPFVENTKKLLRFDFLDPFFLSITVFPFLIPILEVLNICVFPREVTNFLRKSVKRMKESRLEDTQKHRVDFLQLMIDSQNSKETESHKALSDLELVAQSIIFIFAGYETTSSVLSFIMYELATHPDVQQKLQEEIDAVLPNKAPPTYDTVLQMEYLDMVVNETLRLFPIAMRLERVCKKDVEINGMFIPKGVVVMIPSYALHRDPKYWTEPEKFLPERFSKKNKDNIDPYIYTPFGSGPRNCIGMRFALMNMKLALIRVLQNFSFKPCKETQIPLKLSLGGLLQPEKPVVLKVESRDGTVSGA

[16] = ZM109 Env clade C HIV-1 fusion inhibitors, dose response, HeLa effector, CEM target cells, luciferase, cherry-pick (AID 652058); format: functional, cell-based
[17] = CEM21 lymphoblast cell cytotoxicity, dose response, cytotoxicity control for viral fusion inhibitor project, CellTiter-Glo luminescence, cherry-picked (AID 652042); format: functional, cell-based;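 also: potency for signal decrease meaning cytotoxicity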
[18] = THP-1 cell cytotoxicity, dose response, cytotoxicity control for Vif-APOBEC3G degradation inhibitor project, THP-1 cells (AID 1117359); format: functional; settings: Human immunodeficiency virus 1, THP-1
[19] = tested on: SN12K1; assay: cells; format: functional; settings: Homo sapiens
[20] = inhibitors of clade B AD8 Env fusion, dose response, cell-based, cherry-pick (AID 652062); format: functional;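 also: luciferase signal from cell-cell fusion driven by HIV-1 clade B AD8 Env; potency is for inhibitors of fusion seen as a drop in luminescence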
[21] = P. falciparum Dd2 growth inhibitors, dose response, SYBR Green, cherry-picked samples (AID 1159567); format: functional, cell-based
[22] = HepG2 cell cytotoxicity, dose response, cytotoxicity control, cherry-picked samples (AID 1159577); format: functional, cell-based

## CCOC(=O)N1CCC(NC(=O)c2ccc(OC)c(CN3CC(=O)N4CCCC4C3=O)c2)CC1 (stereo unspecified)
[1]
  IC50: > 100 µM (inconclusive)

## Cc1cccc(-c2cc3nc(-c4ccccc4)cc(O)n3n2)c1
[2]
  IC50: 2.01 µM (active)
[3]
  IC50: 2.94 µM (active)
[4]
  IC50: 3.86 µM (active)
[5]
  IC50: 3.88 µM (active)

## CN(C)c1cccc(C(=O)OCC(=O)Nc2ccccc2Sc2ccccc2)c1
[6]
  IC50: > 20 µM (inactive)
[7]
  IC50: 13.1 µM (active)
[8]
  EC50: > 53 µM (inactive)

## CN(C(=O)c1ccccc1)c1nc2ccccc2s1
[2]
  IC50: 50.4 µM (active)
[3]
  IC50: 6.81 µM (active)
[4]
  IC50: 15.6 µM (active)
[5]
  IC50: 21.1 µM (active)

## Cc1cc(N2CCCCC2)n2ncc(-c3ccccc3)c2n1
[2]
  IC50: 12.4 µM (active)
[3]
  IC50: 6.65 µM (active)
[4]
  IC50: 30.1 µM (active)
[5]
  IC50: 13.8 µM (active)

## CC(C)=C1C2CCC1C(C(=O)Nc1sc(C)c(-c3ccc(C(C)C)cc3)c1C(N)=O)C2C(=O)O (stereo unspecified)
[6]
  IC50: 18.8 µM (active)
[7]
  IC50: 5.03 µM (active)
[8]
  EC50: 15.9 µM (active)

## CCCn1c(CNc2ccccc2O)nc2ccccc21
[9]
  IC50: 5.79 µM (active)
[1]
  IC50: > 100 µM (active)

## Cc1cccc(C)c1NC(=O)CCS(=O)(=O)c1cccc2nsnc12
[1]
  IC50: > 100 µM (active)

## CCOC(=O)C1=C(C)N=C2c3ccccc3C(=O)C2C1c1ccc(Cl)cc1 (stereo unspecified)
[10]
  AC50: 16.9 µM (active)
[11]
  CC50: 28.7 µM (active)
[12]
  AC50: 12 µM (active)
[13]
  EC50: 2.06 µM (active)
[14]
  EC50: 29.9 µM (active)
[15]
  AC50: inconclusive
[16]
  AC50: < 0.26 µM (active)
[17]
  AC50: 55.8 µM (active)

## CS(=O)(=O)c1ccc(C(=O)Nc2nc(-c3ccco3)c(-c3ccco3)s2)cc1
[18]
  CC50: > 40 µM (active)

## Cn1c(=O)c2ncn(CC(=O)Nc3cccc(-c4nc5ccccc5s4)c3)c2n(C)c1=O
[2]
  IC50: 26.1 µM (active)
[3]
  IC50: 15.6 µM (active)
[4]
  IC50: 21.4 µM (active)
[5]
  IC50: 23.4 µM (active)

## CC(C)(C)NC(=O)/C(=C/c1ccco1)c1ccccc1
[1]
  IC50: > 100 µM (inconclusive)

## CN1CCc2[nH]c3ccccc3c2C1
[19]
  GI50: > 100 µM (inactive)

## Cc1cc(C(F)(F)F)n(-c2nc(C(=O)N/N=C/c3ccc(F)cc3)cs2)n1
[6]
  IC50: > 20 µM (inactive)
[7]
  IC50: 10.7 µM (active)
[8]
  EC50: > 53 µM (inactive)

## COC(=O)[C@]12C[C@H](CC(=O)NCc3ccccc3)C(=O)N(CCC3=CCCCC3)C1=C[C@H](C(C)(C)C)O[C@@H]2C
[10]
  AC50: 2.75 µM (active)
[12]
  AC50: 1.76 µM (active)
[16]
  AC50: 3.2 µM (active)
[20]
  AC50: 4.31 µM (active)
[17]
  AC50: 32.7 µM (active)

## C[C@H](CO)N1C[C@H](C)[C@@H](CN(C)Cc2cccnc2)Oc2cc(/C=C/c3ccccc3)ccc2S1(=O)=O
[21]
  AC50: 4.03 µM (active)
[22]
  AC50: > 39 µM (inactive)

## O=C(Nc1ccc(-c2ccccc2)cc1)[C@@H]1[C@@H](CO)[C@@H]2Cn3c(cccc3=O)[C@@H]2N1CC1CCCCC1
[21]
  AC50: 3.64 µM (active)
[22]
  AC50: > 39 µM (inactive)

## CO[C@H]1CN(C)C(=O)c2cc(NC(=O)c3ccc(-c4ccccc4)cc3)ccc2OC[C@@H](C)NC[C@H]1C
[21]
  AC50: 5.5 µM (active)
[22]
  AC50: 19.8 µM (active)
